Measured values from article PMC12475274, “Harnessing indole scaffolds to identify small-molecule IRE1α inhibitors modulating XBP1 mRNA splicing” (Nature Communications, 2025).
Where “and” joins values, the source holds several entries; their conditions need not be identical. Equal entries are not always repeated. Where two headings read alike, the source gives them in different places.

Assays:
IRE1α = molecular target: T1, IRE1α (Homo sapiens, UniProt O75460); experiment: Differential scanning fluorimetry (DSF), IRE1α; assay type: binding; settings: for IRE1 ∆Tm(°C): Supplementary Fig. 3c, replicate values
T1 construct: Human IRE1α kinase and RNase domain (residues 547–977) was subcloned into pLIB plasmid; His tag (with TEV cleavage site) (N, cleaved yes); made in house; host or cells: Sf9 insect cells, baculovirus (Bac-to-Bac)
T1 sequence (O75460 547-977): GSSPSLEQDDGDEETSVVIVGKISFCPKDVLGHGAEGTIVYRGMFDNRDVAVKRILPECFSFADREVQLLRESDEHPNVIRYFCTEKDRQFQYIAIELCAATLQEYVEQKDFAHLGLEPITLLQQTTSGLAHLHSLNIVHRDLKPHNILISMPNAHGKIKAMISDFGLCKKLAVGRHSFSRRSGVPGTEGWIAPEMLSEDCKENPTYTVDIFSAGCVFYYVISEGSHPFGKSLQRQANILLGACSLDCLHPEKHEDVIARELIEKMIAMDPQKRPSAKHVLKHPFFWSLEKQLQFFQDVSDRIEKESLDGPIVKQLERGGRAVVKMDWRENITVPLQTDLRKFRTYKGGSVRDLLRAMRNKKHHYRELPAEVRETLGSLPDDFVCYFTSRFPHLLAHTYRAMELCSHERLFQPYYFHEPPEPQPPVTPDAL
Protocol: (§1) The DSF assay was performed in PBS buffer containing 2 mM DTT, in a total reaction volume of 20 µl with indicated compounds (final 1% DMSO) and the final concentration of 1 µM IRE1α protein and 5× SYPRO Orange fluorescent dye (5000× in DMSO, Sigma S5692). The melting curve was measured at a temperature range from 25 °C to 95 °C and in increments of 1 °C for 30 s using a Bio-Rad CFX96 Real-Time PCR detection system with the FRET scan mode. The melting temperature (Tm) was obtained by fitting the melting curve to Boltzmann sigmoidal in GraphPad Prism and the thermal shift (∆Tm) was calculated by using the equation: ∆Tm = Tm(compound) -Tm(DMSO).

p-IRE1α = molecular target: T2, p-IRE1α (Homo sapiens, UniProt O75460); experiment: Differential scanning fluorimetry (DSF), p-IRE1α; assay type: binding; settings: individual replicate values
T2 construct: Human IRE1α kinase and RNase domain (residues 547–977) was subcloned into pLIB plasmid; His tag (with TEV cleavage site) (N, cleaved yes); made in house; host or cells: Sf9 insect cells, baculovirus (Bac-to-Bac)
T2 sequence (O75460 547-977): as above
Protocol: as §1

[1] = molecular target: T3, dephosphorylated IRE1α (547–977) (Homo sapiens, UniProt O75460); experiment: FRET-based IRE1α RNase activity assay, dephosphorylated IRE1α; assay type: biochemical; settings: for IC50: FRET assay
T3 construct: Human IRE1α kinase and RNase domain (residues 547–977) was subcloned into pLIB plasmid; His tag (with TEV cleavage site) (N, cleaved yes); made in house; host or cells: Sf9 insect cells, baculovirus (Bac-to-Bac)
T3 sequence (O75460 547-977): as above
Protocol: (§2) Human IRE1α kinase and RNase domain (residues 547–977) was subcloned into pLIB plasmid with a His tag and TEV cleavage site, and expressed using Bac-to-Bac expression system. The primers used are listed in Supplementary Table S3. The protein purification was performed following established procedures. Briefly, Sf9 cells were infected with baculovirus and incubated at 27 °C 110 rpm for 72 h. The cells were collected by centrifugation at 4000 × g for 15 min and the cell pellet was resuspended in lysis buffer (50 mM HEPES pH 7.5, 300 mM NaCl, 10% glycerol, 1 mM MgCl2, 1 mM TCEP, 5 mM imidazole), then supplemented with 1:10,000 benzonase (Sigma, E1014), 1 tablet/25 mL […]™ Protease Inhibitor Cocktail tablets (Sigma, S8830) and 1 mM PMSF before lysed by sonication at 4 °C. […] The protein elution was incubated with TEV protease to remove His tag at 4 °C overnight. Then the sample was diluted 1:6 in buffer (50 mM HEPES pH 7.5, 1 mM TCEP, 5% glycerol) and loaded onto a 5 mL pre-packaged Q HP anion exchange column (Cytiva, HiTrap Q HP) pre-equilibrated with QA buffer (50 mM HEPES pH 7.5, 50 mM NaCl, 1 mM TCEP, 5% glycerol). The unphosphorylated and phosphorylated protein was separated by eluting the protein with a very shallow gradient with 0-30% buffer QB (50 mM HEPES pH 7.5, 1 M NaCl, 1 mM TCEP, 5% glycerol) over 80 CV. Different peaks were collected separately and verified by LC-MS. The fully phosphorylated fraction was collected and further purified by size exclusion chromatography (Cytiva, HiLoad 16/600 Superdex 200 pg,) with SEC buffer (25 mM HEPES pH 7.5, 250 mM NaCl, 1 mM TCEP, 10% glycerol) and fractioned as monomeric peak. The rest protein fraction from the Q HP anion exchange column was incubated with Lambda protein phosphatase (New England BioLabs, P0753S) overnight at 4 °C, the dephosphorylation was confirmed by LC-MS. The unphosphorylated protein was further purified by size exclusion chromatography with the SEC buffer described above. The purified phosphorylated (p-IRE1α) and dephosphorylated (IRE1α) protein aliquots were stored at −80 °C for future usage.
The dual-labeled RNA substrate with a FAM at 5’ and the BHQ-1 at 3’ containing the XBP1 sequence (5′FAM-[…]-3′BHQ1) was purchased from Integrated DNA Technologies (IDT). The FRET-based IRE1α RNase activity assay was carried out in reaction buffer containing 20 mM HEPES pH 7.5, 50 mM KOAc, 1 mM MgOAc2, 1 mM DTT, 0.05% v/v TritonX-100, at a total reaction volume of 20 μL in a 384-well black plate (4514, Corning). For unphosphorylated IRE1α (IRE1α), a final concentration of 40 nM IRE1α protein and 100 nM RNA substrate was used. For phosphorylated IRE1 (p-IRE1α), a final concentration of 4 nM p-IRE1α protein and 200 nM RNA substrate was used. The indicated compound and IRE1α protein were incubated for 30 min at room temperature before the substrate was added to the reaction. The plate was then kinetically read over one hour at room temperature using a TECAN Spark plate reader. The measurement was carried out using the fluorescence top reading mode at the excitation wavelength of 485 nm and the emission wavelength of 535 nm with a 10 nm excitation and emission bandwidth. The linear part of the reaction curve was adopted and fitted with sample linear regression to obtain the slope, and the slope was adopted to reflect the reaction rate. The inhibition % was calculated by using the equation: inhibition% = 100 × (slope of DMSO control – slope of the sample)/(slope of DMSO control – slope of blank control), DMSO control: DMSO with protein and RNA substrate; Blank control: DMSO with RNA substrate. The IC50 values were calculated using the concentration-response model in GraphPad Prism 9. […]

[2] = molecular target: T4, phosphorylated IRE1α (p-IRE1α) (Homo sapiens, UniProt O75460); experiment: FRET-based IRE1α RNase activity assay, phosphorylated IRE1α; assay type: biochemical
T4 construct: Human IRE1α kinase and RNase domain (residues 547–977) was subcloned into pLIB plasmid; His tag (with TEV cleavage site) (N, cleaved yes); made in house; host or cells: Sf9 insect cells, baculovirus (Bac-to-Bac)
T4 sequence (O75460 547-977): as above
Protocol: as §2
The dual-labeled RNA substrate with a FAM at 5’ and the BHQ-1 at 3’ containing the XBP1 sequence (5′FAM-[…]-3′BHQ1) was purchased from Integrated DNA Technologies (IDT). The FRET-based IRE1α RNase activity assay was carried out in reaction buffer containing 20 mM HEPES pH 7.5, 50 mM KOAc, 1 mM MgOAc2, 1 mM DTT, 0.05% v/v TritonX-100, at a total reaction volume of 20 μL in a 384-well black plate (4514, Corning). For unphosphorylated IRE1α (IRE1α), a final concentration of 40 nM IRE1α protein and 100 nM RNA substrate was used. For phosphorylated IRE1 (p-IRE1α), a final concentration of 4 nM p-IRE1α protein and 200 nM RNA substrate was used. The indicated compound and IRE1α protein were incubated for 30 min at room temperature before the substrate was added to the reaction. The plate was then kinetically read over one hour at room temperature using a TECAN Spark plate reader. The measurement was carried out using the fluorescence top reading mode at the excitation wavelength of 485 nm and the emission wavelength of 535 nm with a 10 nm excitation and emission bandwidth. The linear part of the reaction curve was adopted and fitted with sample linear regression to obtain the slope, and the slope was adopted to reflect the reaction rate. The inhibition % was calculated by using the equation: inhibition% = 100 × (slope of DMSO control – slope of the sample)/(slope of DMSO control – slope of blank control), DMSO control: DMSO with protein and RNA substrate; Blank control: DMSO with RNA substrate. The IC50 values were calculated using the concentration-response model in GraphPad Prism 9.

[3] = RNase activity, mean (± SEM), read-out: IRE1α IC50
[4] = source data, unit from Fig. 3 / sheet Fig. 2b, read-out: IRE1a IC50, individual replicates (n1-n4)
[5] = FRET assay, RNase activity, mean (± SEM), read-out: p-IRE1α IC50
[6] = FRET assay, source data, unit from Fig. 3, read-out: p-IRE1a IC50, individual replicates (n1-n4)
[7] = p-IRE1a, individual replicates (n1-n3), Supplementary Fig. 2b, 2c, read-out: IC50

| SMILES | IRE1 ∆Tm(°C) (IRE1α; compound 6.25 μM) | IRE1 ∆Tm(°C) (IRE1α; compound 12.5 μM) | IRE1 ∆Tm(°C) (IRE1α; compound 25 μM) | IRE1 ∆Tm(°C) (IRE1α; compound 50 μM) | stabilization of IRE1α in DSF (IRE1α) | p-IRE1a ∆Tm(°C) (p-IRE1α; compound 6.25 μM) | p-IRE1a ∆Tm(°C) (p-IRE1α; compound 12.5 μM) | p-IRE1a ∆Tm(°C) (p-IRE1α; compound 25 μM) | p-IRE1a ∆Tm(°C) (p-IRE1α; compound 50 μM) | IC50 [1, 3] | IC50 [1, 4] | IC50 [2, 5] [µM] | IC50 [2, 6] | IC50 [2, 7] | inhibition at 50 µM ([1]; FRET assay at 50 μM, mean (± SEM), read-out: IRE1α inhibition%) [%] | inhibition at 50 µM ([2]; FRET assay at 50 μM, mean (± SEM), read-out: p-IRE1α inhibition%) [%] | p-IRE1α IC50 ([2]; FRET assay, RNase activity, mean (± SEM)) |
| --- | --- | --- | --- | --- | --- | --- | --- | --- | --- | --- | --- | --- | --- | --- | --- | --- | --- |
| COc1ccc2c(c1)c(CCC(=O)O)c(C)n2C(=O)c1ccc2ccccc2c1 [IA034] | 0.1 °C and -0.04 °C | 0.02 °C and -0.1 °C | 0.25 °C and 0 °C | -0.02 °C and 0 °C | – | – | – | – | – | – | – | – | – | – | – | – | – |
| COc1ccc2c(c1)c(CC(=O)N1CCOCC1)c(C)n2C(=O)c1ccc(Cl)cc1 [cms11] | – | – | – | – | – | – | – | – | – | – | – | – | – | – | < 30 | < 30 | – |
| Cc1c(CCC(=O)O)c2cc(-c3cn[nH]c3)ccc2n1C(=O)c1ccccc1 [IA158] | – | – | – | – | – | – | – | – | – | 0.7 µM | 0.708 µM and 0.693 µM | 2.34 | 3.18 µM and 1.5 µM | – | – | – | – |
| COc1ccc2c(c1)c(CCC(=O)O)c(C)n2C(=O)N1CCCCC1 [IA89] | – | – | – | – | – | – | – | – | – | 69.6 µM | 33.4 µM and 89.3 µM and 86 µM | > 20 | – | – | – | – | IC₅₀ not reached |

Continued, values first:

| IRE1 ∆Tm(°C) (IRE1α; compound 6.25 μM) | IRE1 ∆Tm(°C) (IRE1α; compound 12.5 μM) | IRE1 ∆Tm(°C) (IRE1α; compound 25 μM) | IRE1 ∆Tm(°C) (IRE1α; compound 50 μM) | stabilization of IRE1α in DSF (IRE1α) | p-IRE1a ∆Tm(°C) (p-IRE1α; compound 6.25 μM) | p-IRE1a ∆Tm(°C) (p-IRE1α; compound 12.5 μM) | p-IRE1a ∆Tm(°C) (p-IRE1α; compound 25 μM) | p-IRE1a ∆Tm(°C) (p-IRE1α; compound 50 μM) | IC50 [1, 3] | IC50 [1, 4] | IC50 [2, 5] [µM] | IC50 [2, 6] | IC50 [2, 7] | inhibition at 50 µM ([1]; FRET assay at 50 μM, mean (± SEM), read-out: IRE1α inhibition%) [%] | inhibition at 50 µM ([2]; FRET assay at 50 μM, mean (± SEM), read-out: p-IRE1α inhibition%) [%] | p-IRE1α IC50 ([2]; FRET assay, RNase activity, mean (± SEM)) | SMILES |
| --- | --- | --- | --- | --- | --- | --- | --- | --- | --- | --- | --- | --- | --- | --- | --- | --- | --- |
| 0.71 °C and 0.59 °C | 1.19 °C and 1.23 °C | 1.84 °C and 1.88 °C | 2.92 °C and 2.84 °C | concentration-dependently stabilized | 0.49 °C and 0.43 °C | 0.57 °C and 0.74 °C | 1.03 °C and 1.24 °C | 1.59 °C and 1.56 °C | 0.09 µM and 0.085 µM | 0.0635 µM and 0.1 µM and 0.0913 µM | 0.04 | 0.057 µM and 0.041 µM and 0.021 µM | 0.0568 µM and 0.0413 µM and 0.0214 µM | – | – | – | COc1ccc2c(c1)c(CCC(=O)O)c(C)n2C(=O)c1cccc(C#N)c1 [IA30] |
| 0.75 °C and 0.95 °C | 1 °C and 0.99 °C | 1.96 °C and 1.82 °C | 2.84 °C and 2.57 °C | concentration-dependently stabilized | 0.24 °C and 0.45 °C | 0.39 °C and 0.62 °C | 1.04 °C and 1.05 °C | 1.49 °C and 1.54 °C | 0.1 µM | 0.0733 µM and 0.11 µM and 0.118 µM | 0.12 | 0.176 µM and 0.068 µM and 0.105 µM | 0.176 µM and 0.068 µM and 0.105 µM | – | – | – | COc1ccc2c(c1)c(CCC(=O)O)c(C)n2C(=O)c1cccs1 [IA03] |
| – | – | – | – | – | – | – | – | – | 0.14 µM | 0.213 µM and 0.125 µM and 0.0827 µM | 0.2 | 0.124 µM and 0.115 µM and 0.353 µM | – | – | – | – | COc1ccc2c(c1)c(CCC(=O)O)c(C)n2C(=O)c1ccc(F)cc1 [IA66] |
